From the supplement of paper PMC10307832

What was measured:
Test in all cases: relative viability (nuclei count vs DMSO), 5 days (fraction); higher = more cells survive
LCLC-97TM1 = system: LCLC-97TM1
In short: (§1)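 One day after seeding in 1536-well plates, lung cancer cell lines were dosed by pin tool. Dosing was either single-drug or a fixed anchor-drug dose plus five library-drug doses (not always all listed) in √10 steps. After 5 days, nuclei were stained in one fix-and-stain step and counted on 4× images, and relative viability is the nuclei count of treated wells over that of vehicle wells, given as the median of duplicate plates.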

NCI-H1793 = system: NCI-H1793
In short: as §1

SW 1573 = system: SW 1573
In short: as §1

PC-3 [JPC-3] = system: PC-3 [JPC-3]
In short: as §1

NCI-H2347 = system: NCI-H2347
In short: as §1

NCI-H520 = system: NCI-H520
In short: as §1

NCI-H1650 = system: NCI-H1650
In short: as §1

NCI-H2228 = system: NCI-H2228
In short: as §1

NCI-H1915 = system: NCI-H1915
In short: as §1

RERF-LC-KJ = system: RERF-LC-KJ
In short: as §1

LOU-NH91 = system: LOU-NH91
In short: as §1

BEN = system: BEN
In short: as §1

NCI-H1666 = system: NCI-H1666
In short: as §1

NCI-H1993 = system: NCI-H1993
In short: as §1

A-427 = system: A-427
In short: as §1

NCI-H460 = system: NCI-H460
In short: as §1

NCI-H23 = system: NCI-H23
In short: as §1

EKVX = system: EKVX
In short: as §1

LC-2-ad = system: LC-2-ad
In short: as §1

LU99A = system: LU99A
In short: as §1

NCI-H838 = system: NCI-H838
In short: as §1

NCI-H650 = system: NCI-H650
In short: as §1

NCI-H1355 = system: NCI-H1355
In short: as §1

Structure (SMILES): O=c1[nH]c2ccccc2n1C1CCN(CCCC(c2ccc(F)cc2)c2ccc(F)cc2)CC1 [Pimozide] + Cc1cc(Nc2cc(N3CCN(C)CC3)nc(Sc3ccc(NC(=O)C4CC4)cc3)n2)n[nH]1 [Tozasertib] (partner 0.1 µM)
- relative viability (LCLC-97TM1; first compound 0.08 µM): 0.265
- relative viability (LCLC-97TM1; first compound 0.253 µM): 0.212
- relative viability (LCLC-97TM1; first compound 0.8 µM): 0.225
- relative viability (LCLC-97TM1; first compound 2.53 µM): 0.173
- relative viability (LCLC-97TM1; first compound 8 µM): 0.193
- relative viability (NCI-H1793; first compound 0.253 µM): 0.341
- relative viability (NCI-H1793; first compound 0.8 µM): 0.439
- relative viability (NCI-H1793; first compound 2.53 µM): 0.244
- relative viability (NCI-H1793; first compound 8 µM): 0.278
- relative viability (SW 1573; first compound 0.08 µM): 0.132
- relative viability (SW 1573; first compound 0.253 µM): 0.273
- relative viability (SW 1573; first compound 0.8 µM): 0.133
- relative viability (SW 1573; first compound 2.53 µM): 0.194
- relative viability (SW 1573; first compound 8 µM): 0.174
- relative viability (PC-3 [JPC-3]; first compound 0.08 µM): 0.557
- relative viability (PC-3 [JPC-3]; first compound 0.253 µM): 0.875
- relative viability (PC-3 [JPC-3]; first compound 0.8 µM): 0.754
- relative viability (PC-3 [JPC-3]; first compound 2.53 µM): 0.771
- relative viability (PC-3 [JPC-3]; first compound 8 µM): 0.788
- relative viability (NCI-H2347; first compound 0.253 µM): 0.582
- relative viability (NCI-H2347; first compound 0.8 µM): 0.531
- relative viability (NCI-H2347; first compound 2.53 µM): 0.563
- relative viability (NCI-H2347; first compound 8 µM): 0.578
- relative viability (NCI-H520; first compound 0.08 µM): 0.503
- relative viability (NCI-H520; first compound 0.253 µM): 0.422
- relative viability (NCI-H520; first compound 0.8 µM): 0.42
- relative viability (NCI-H520; first compound 2.53 µM): 0.435
- relative viability (NCI-H520; first compound 8 µM): 0.366
- relative viability (NCI-H1650; first compound 0.08 µM): 0.347
- relative viability (NCI-H1650; first compound 0.253 µM): 0.398
- relative viability (NCI-H1650; first compound 0.8 µM): 0.475
- relative viability (NCI-H1650; first compound 2.53 µM): 0.331
- relative viability (NCI-H1650; first compound 8 µM): 0.307
- relative viability (NCI-H2228; first compound 0.08 µM): 0.263
- relative viability (NCI-H2228; first compound 0.253 µM): 0.262
- relative viability (NCI-H2228; first compound 0.8 µM): 0.308
- relative viability (NCI-H2228; first compound 2.53 µM): 0.172
- relative viability (NCI-H2228; first compound 8 µM): 0.148
- relative viability (NCI-H1915; first compound 0.08 µM): 0.445
- relative viability (NCI-H1915; first compound 0.253 µM): 0.383
- relative viability (NCI-H1915; first compound 0.8 µM): 0.332
- relative viability (NCI-H1915; first compound 2.53 µM): 0.321
- relative viability (NCI-H1915; first compound 8 µM): 0.368
- relative viability (RERF-LC-KJ; first compound 0.08 µM): 0.468
- relative viability (RERF-LC-KJ; first compound 0.253 µM): 0.447
- relative viability (RERF-LC-KJ; first compound 0.8 µM): 0.452
- relative viability (RERF-LC-KJ; first compound 2.53 µM): 0.202
- relative viability (RERF-LC-KJ; first compound 8 µM): 0.248
- relative viability (LOU-NH91; first compound 0.08 µM): 0.451
- relative viability (LOU-NH91; first compound 0.253 µM): 0.614
- relative viability (LOU-NH91; first compound 0.8 µM): 0.553
- relative viability (LOU-NH91; first compound 2.53 µM): 0.648
- relative viability (LOU-NH91; first compound 8 µM): 0.652
- relative viability (BEN; first compound 0.08 µM): 0.465
- relative viability (BEN; first compound 0.253 µM): 0.548
- relative viability (BEN; first compound 0.8 µM): 0.427
- relative viability (BEN; first compound 2.53 µM): 0.471
- relative viability (BEN; first compound 8 µM): 0.422
- relative viability (NCI-H1666; first compound 0.08 µM): 0.628
- relative viability (NCI-H1666; first compound 0.253 µM): 0.571
- relative viability (NCI-H1666; first compound 0.8 µM): 0.648
- relative viability (NCI-H1666; first compound 2.53 µM): 0.559
- relative viability (NCI-H1666; first compound 8 µM): 0.476
- relative viability (NCI-H1993; first compound 0.08 µM): 0.555
- relative viability (NCI-H1993; first compound 0.253 µM): 0.567
- relative viability (NCI-H1993; first compound 0.8 µM): 0.612
- relative viability (NCI-H1993; first compound 2.53 µM): 0.568
- relative viability (NCI-H1993; first compound 8 µM): 0.58
- relative viability (A-427; first compound 0.08 µM): 0.194
- relative viability (A-427; first compound 0.253 µM): 0.189
- relative viability (A-427; first compound 0.8 µM): 0.222
- relative viability (A-427; first compound 2.53 µM): 0.16
- relative viability (A-427; first compound 8 µM): 0.208
- relative viability (NCI-H460; first compound 0.08 µM): 0.407
- relative viability (NCI-H460; first compound 0.253 µM): 0.314
- relative viability (NCI-H460; first compound 0.8 µM): 0.446
- relative viability (NCI-H460; first compound 2.53 µM): 0.0946
- relative viability (NCI-H460; first compound 8 µM): 0.436
- relative viability (NCI-H23; first compound 0.08 µM): 0.386
- relative viability (NCI-H23; first compound 0.253 µM): 0.396
- relative viability (NCI-H23; first compound 0.8 µM): 0.348
- relative viability (NCI-H23; first compound 2.53 µM): 0.336
- relative viability (NCI-H23; first compound 8 µM): 0.314
- relative viability (EKVX; first compound 0.08 µM): 0.35
- relative viability (EKVX; first compound 0.253 µM): 0.321
- relative viability (EKVX; first compound 0.8 µM): 0.36
- relative viability (EKVX; first compound 2.53 µM): 0.315
- relative viability (EKVX; first compound 8 µM): 0.388
- relative viability (LC-2-ad; first compound 0.08 µM): 0.442
- relative viability (LC-2-ad; first compound 0.253 µM): 0.455
- relative viability (LC-2-ad; first compound 0.8 µM): 0.416
- relative viability (LC-2-ad; first compound 2.53 µM): 0.385
- relative viability (LC-2-ad; first compound 8 µM): 0.35
- relative viability (LU99A; first compound 0.08 µM): 0.244
- relative viability (LU99A; first compound 0.253 µM): 0.277
- relative viability (LU99A; first compound 0.8 µM): 0.27
- relative viability (LU99A; first compound 2.53 µM): 0.304
- relative viability (LU99A; first compound 8 µM): 0.256
- relative viability (NCI-H838; first compound 0.08 µM): 0.271
- relative viability (NCI-H838; first compound 0.253 µM): 0.287
- relative viability (NCI-H838; first compound 0.8 µM): 0.31
- relative viability (NCI-H838; first compound 2.53 µM): 0.276
- relative viability (NCI-H838; first compound 8 µM): 0.323
- relative viability (NCI-H650; first compound 0.08 µM): 0.758
- relative viability (NCI-H650; first compound 0.253 µM): 0.702
- relative viability (NCI-H650; first compound 0.8 µM): 0.662
- relative viability (NCI-H650; first compound 2.53 µM): 0.698
- relative viability (NCI-H650; first compound 8 µM): 0.782
- relative viability (NCI-H1355; first compound 0.08 µM): 0.569
- relative viability (NCI-H1355; first compound 0.253 µM): 0.534
- relative viability (NCI-H1355; first compound 0.8 µM): 0.462
- relative viability (NCI-H1355; first compound 2.53 µM): 0.376
- relative viability (NCI-H1355; first compound 8 µM): 0.414
